Source: patent US20250230147A1, “LACTAMS AS CBL-B INHIBITORS” (Genentech, Inc., priority 2021, published 2025)
pIC50: −log10 of the molar value. Where a name gives a salt, the structure may show the parent alone.

Tests used:
Cbl-b = Cbl-b (Homo sapiens (Human), UniProt Q13191); assay: Cbl-b LCK Ub TR-FRET assay (Cbl-b Lck HTRF); format: biochemical
Method in brief: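 Biotin-Cbl-b preincubated with compound (10-point 3-fold series) 60 min, then His-LCK with 1 mM ATP (2× mixture) added for 90 min at room temperature. Ubiquitination detected by TR-FRET using HA-ubiquitin/UBE2D2 adduct, anti-HA-D2 and streptavidin-Eu; IC50 normalised to no-LCK and DMSO controls.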

c-Cbl = c-Cbl (Homo sapiens (Human), UniProt P22681); assay: C-Cbl LCK Ub TR-FRET assay (c-cbl Lck HTRF); format: biochemical; settings: for (fold-selectivity): C-cbl Lck HTRF IC50 relative to Cbl-b Lck HTRF IC50
Method in brief: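 Detection reagents added, brief spin, 20 min RT. IC50 fit normalized to no-LCK (low) and DMSO (high) controls.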

Chain of Cbl-b (Q13191 40-426): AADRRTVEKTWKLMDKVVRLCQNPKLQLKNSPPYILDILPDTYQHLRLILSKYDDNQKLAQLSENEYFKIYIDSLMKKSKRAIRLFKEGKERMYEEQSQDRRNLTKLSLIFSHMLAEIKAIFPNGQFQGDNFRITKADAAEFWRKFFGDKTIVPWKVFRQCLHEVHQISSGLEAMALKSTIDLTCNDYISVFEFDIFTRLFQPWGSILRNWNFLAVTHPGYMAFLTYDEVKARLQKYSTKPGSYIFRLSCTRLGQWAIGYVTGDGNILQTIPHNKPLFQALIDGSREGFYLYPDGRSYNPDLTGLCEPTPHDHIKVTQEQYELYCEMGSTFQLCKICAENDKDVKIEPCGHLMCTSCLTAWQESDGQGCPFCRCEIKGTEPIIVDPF
Chain of c-Cbl (P22681 47-435): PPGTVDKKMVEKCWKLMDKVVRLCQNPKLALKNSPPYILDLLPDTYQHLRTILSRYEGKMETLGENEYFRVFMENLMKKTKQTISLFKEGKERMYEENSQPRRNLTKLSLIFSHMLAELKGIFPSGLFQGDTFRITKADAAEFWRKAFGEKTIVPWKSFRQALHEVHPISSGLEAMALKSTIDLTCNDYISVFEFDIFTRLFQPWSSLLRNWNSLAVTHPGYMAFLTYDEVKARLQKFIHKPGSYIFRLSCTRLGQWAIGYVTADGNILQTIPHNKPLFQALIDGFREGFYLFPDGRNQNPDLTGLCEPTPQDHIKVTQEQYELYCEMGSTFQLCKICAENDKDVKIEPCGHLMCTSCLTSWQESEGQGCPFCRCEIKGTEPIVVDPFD

Row | pIC50 (Cbl-b) | pIC50 (c-Cbl) | (fold-selectivity) (c-Cbl) | Compound
1 | 7.46 | 7.32 | (1.4x) | C=CC(=O)Nc1cc(C2(Cc3nncn3C)CCC2)cc(N2Cc3c(cc(CN4CCN(C)C[C@@H]4C(C)C)cc3C(F)(F)F)C2=O)n1 [Compound 239, (S)—N-(6-(6-((2-isopropyl-4-methylpiperazin-1-yl)methyl)-1-oxo-4-(trifluoromethyl)isoindolin-2-yl)-4-(1-((4-methyl-4H-1,2,4-triazol-3-yl)methyl)cyclobutyl)-pyridin-2-yl)acrylamide]
2 | 7.12 | 7.05 | (1.2x) | Cn1cnnc1CC1(c2cc(N[C@H]3CC[C@@H](N)CC3)nc(N3Cc4c(cc(CNC5(C)CCC5)cc4C(F)(F)F)C3=O)c2)CCC1 [Compound 306, 2-(6-(((1s,4s)-4-aminocyclohexyl)amino)-4-(1-((4-methyl-4H-1,2,4-triazol-3-yl)methyl)cyclobutyl)pyridin-2-yl)-6-(((1-methylcyclobutyl)amino)methyl)-4-(trifluoromethyl)isoindolin-1-one]
3 | 7.92 | 8.04 | (0.78x) | CC(C)CNCc1cc2c(c(C(F)(F)F)c1)CN(c1cccc(C3([C@H](F)c4nncn4C)CC(F)(F)C3)c1)C2=O [Compound 452, (S)-2-(3-(3,3-difluoro-1-(fluoro(4-methyl-4H-1,2,4-triazol-3-yl)methyl)cyclobutyl)phenyl)-6-((isobutylamino)methyl)-4-(trifluoromethyl)isoindolin-1-one]
4 | 7.89 | 7.82 | (1.1x) | Cn1cnnc1[C@H](F)C1(c2cccc(N3Cc4c(cc([C@H](N)C5CCC5)cc4C(F)(F)F)C3=O)c2)COC1 [Compound 392, 6-((R)-amino(cyclobutyl)methyl)-2-(3-(3-((R)-fluoro(4-methyl-4H-1,2,4-triazol-3-yl)methyl)oxetan-3-yl)phenyl)-4-(trifluoromethyl)isoindolin-1-one]
5 | 7.64 | 7.82 | (0.66x) | CCCNCc1cc2c(c(C(F)(F)F)c1)CN(c1cc(NCC)cc(C3(Cc4nncn4C)CCC3)c1)C2=O [Compound 458, 2-(3-(ethylamino)-5-(1-((4-methyl-4H-1,2,4-triazol-3-yl)methyl)cyclobutyl)phenyl)-6-((propylamino)methyl)-4-(trifluoromethyl)isoindolin-1-one]
6 | 8.17 | 8.31 | (0.73x) | CCSc1cc(C2(Cc3nncn3C)CCC2)cc(N2Cc3c(cc(CNC4(C)CCC4)cc3C(F)(F)F)C2=O)n1 [Compound 286, 2-(6-(ethylthio)-4-(1-((4-methyl-4H-1,2,4-triazol-3-yl)methyl)cyclobutyl)pyridin-2-yl)-6-(((1-methylcyclobutyl)amino)methyl)-4-(trifluoromethyl)isoindolin-1-one]
7 | 7.74 | 7.77 | (0.95x) | CC[C@H]1CN(C)CCN1Cc1cc2c(c(C(F)(F)F)c1)CN(c1cccc(C3(Cc4nncn4C)CC(F)(F)C3)c1)C2=O [Compound 434, (S)-2-(3-(3,3-difluoro-1-((4-methyl-4H-1,2,4-triazol-3-yl)methyl)cyclobutyl)phenyl)-6-((2-ethyl-4-methylpiperazin-1-yl)methyl)-4-(trifluoromethyl)isoindolin-1-one]
8 | 7.66 | 7.54 | 1.3x | CC(C)[C@@H]1CN(Cc2cc3c(c(C(F)(F)F)c2)CN(c2cccc(C4([C@@H](F)c5nncn5C)COC4)c2)C3=O)CCN1C [Compound 218, 2-(3-(3-((R)-fluoro(4-methyl-4H-1,2,4-triazol-3-yl)methyl)oxetan-3-yl)phenyl)-6-(((R)-3-isopropyl-4-methylpiperazin-1-yl)methyl)-4-(trifluoromethyl)isoindolin-1-one]
9 | 7.92 | 8.17 | (0.57x) | COc1cc(C2(Cc3nncn3C)CCC2)cc(N2Cc3c(cc(CN4CCN(C)C[C@@H]4C(C)C)cc3C(F)(F)F)C2=O)n1 [Compound 365, (S)-6-((2-isopropyl-4-methylpiperazin-1-yl)methyl)-2-(6-methoxy-4-(1-((4-methyl-4H-1,2,4-triazol-3-yl)methyl)cyclobutyl)pyridin-2-yl)-4-(trifluoromethyl)isoindolin-1-one]
10 | 7.92 | 7.82 | (1.2x) | CC(C)[C@H]1CN(C)CCN1Cc1cc2c(c(C(F)(F)F)c1)CN(c1cc(C3([C@@H](F)c4nncn4C)CCC3)cc(NCC3CC3)n1)C2=O [Compound 278, 2-(6-((cyclopropylmethyl)amino)-4-(1-((R)-fluoro(4-methy-4H-1,2,4-triazol-3-yl)methyl)cyclobutyl)pyridin-2-yl)-6-(((S)-2-isopropyl-4-methylpiperazin-1-yl)methyl)-4-(trifluoromethyl)isoindolin-1-one]
11 | 7.23 | 6.74 | (2.8x) | Cn1cnnc1CC1(c2cc(NC3CCCC3)cc(N3Cc4c(cc(CNC5(C)CCC5)cc4C(F)(F)F)C3=O)c2)COC1 [Compound 480, 2-(3-(cyclopentylamino)-5-(3-((4-methyl-4H-1,2,4-triazol-3-yl)methyl)oxetan-3-yl)phenyl)-6-(((1-methylcyclobutyl)amino)methyl)-4-(trifluoromethyl)isoindolin-1-one]

Further lines, the compound ahead of its results:

Row | Compound | pIC50 (Cbl-b) | pIC50 (c-Cbl) | (fold-selectivity) (c-Cbl)
12 | Cn1cnnc1[C@@H](F)C1(c2cccc(N3Cc4c(cc(CN5CC6(CCO6)C5)cc4C(F)(F)F)C3=O)c2)COC1 [Compound 140, (S)-6-(1-oxa-6-azaspiro[3.3]heptan-6-ylmethyl)-2-(3-(3-(fluoro(4-methyl-4H-1,2,4-triazol-3-yl)methyl)oxetan-3-yl)phenyl)-4-(trifluoromethyl)isoindolin-1-one] | 6.42 | 6.01 | 2.8x
13 | Cn1cnnc1[C@H](F)C1(c2cccc(N3Cc4c(Br)cccc4C3=O)c2)COC1 [Compound 203, (R)-4-bromo-2-(3-(3-(fluoro(4-methyl-4H-1,2,4-triazol-3-yl)methyl)oxetan-3-yl)phenyl)isoindolin-1-one] | 6.70 | 6.40 | 2.0x
14 | Cn1cnnc1[C@H](F)C1(c2cccc(N3Cc4c(cc(CN5CC6(COC6)C5)cc4C(F)(F)F)C3=O)c2)COC1 [Compound 9, (R)-6-(2-oxa-6-azaspiro[3.3]heptan-6-ylmethyl)-2-(3-(3-(fluoro(4-methyl-4H-1,2,4-triazol-3-yl)methyl)oxetan-3-yl)phenyl)-4-(trifluoromethyl)isoindolin-1-one] | 6.80 | 6.46 | 2.1x
15 | Cn1cnnc1[C@H](F)C1(c2cccc(N3Cc4c(cc(CN5CC(C)(O)C5)cc4C(F)(F)F)C3=O)c2)CC1 (single isomer, unassigned) [Compound 30] | 7.19 | 7.04 | 1.4x
16 | Cn1cnnc1[C@H](F)C1(c2cccc(N3Cc4c(cc(CN5CC6(C5)CS(=O)(=O)C6)cc4C(F)(F)F)C3=O)c2)COC1 [Compound 181, (R)-6-((2,2-dioxido-2-thia-6-azaspiro[3.3]heptan-6-yl)methyl)-2-(3-(3-(fluoro(4-methyl-4H-1,2,4-triazol-3-yl)methyl)oxetan-3-yl)phenyl)-4-(trifluoromethyl)isoindolin-1-one] | 7.28 | 6.96 | 2.1x
17 | C[C@@H](N)c1cc2c(c(C(F)(F)F)c1)CN(c1cccc(C3([C@@H](F)c4nncn4C)COC3)c1)C2=O [Compound 191, 6-((R)-1-aminoethyl)-2-(3-(3-((R)-fluoro(4-methyl-4H-1,2,4-triazol-3-yl)methyl)oxetan-3-yl)phenyl)-4-(trifluoromethyl)isoindolin-1-one] | 7.46 | 7.28 | 1.5x
18 | Cn1cnnc1[C@@H](F)[C@](C)(F)c1cccc(N2Cc3c(cc(CN4CC(C)(F)C4)cc3C(F)(F)F)C2=O)c1 [Compound 34] | 6.42 | 6.12 | 2.0x
19 | Cn1cnnc1[C@@H](F)C1(c2cccc(N3Cc4c(cc(CN5CC(C)(O)C5)cc4C(F)(F)F)C3=O)c2)CC1 (single isomer, unassigned) [Compound 29] | 6.92 | 6.64 | 1.8x
20 | COCC1(O)CN(Cc2cc3c(c(C(F)(F)F)c2)CN(c2cccc(C4([C@H](F)c5nncn5C)COC4)c2)C3=O)C1 [Compound 186, (S)-2-(3-(3-(fluoro(4-methyl-4H-1,2,4-triazol-3-yl)methyl)oxetan-3-yl)phenyl)-6-((3-hydroxy-3-(methoxymethyl)azetidin-1-yl)methyl)-4-(trifluoromethyl)isoindolin-1-one] | 6.96 | 6.70 | 1.7x
21 | CC(C)NCc1cc2c(c(C(F)(F)F)c1)CN(c1cccc(C3([C@@H](F)c4nncn4C)COC3)c1)C2=O [Compound 226, (R)-2-(3-(3-(fluoro(4-methyl-4H-1,2,4-triazol-3-yl)methyl)oxetan-3-yl)phenyl)-6-((isopropylamino)methyl)-4-(trifluoromethyl)isoindolin-1-one formate] | 7.54 | 7.48 | –
22 | Cn1cnnc1[C@H](F)C1(c2cccc(N3Cc4c(cc(CN5CCC[C@H](CO)C5)cc4C(F)(F)F)C3=O)c2)COC1 [Compound 143, 2-(3-(3-((R)-fluoro(4-methyl-4H-1,2,4-triazol-3-yl)methyl)oxetan-3-yl)phenyl)-6-(((S)-3-(hydroxymethyl)piperidin-1-yl)methyl)-4-(trifluoromethyl)isoindolin-1-one] | 7.54 | 7.57 | 0.92x
